Non-standard residues stand in square brackets, D forms with d. No end group written: not given here. Nle = CCCC[C@H](N)C(=O)O
Columns and labels:
[1] = system: +SA WAZ-2T mouse mammary carcinoma cells; assay: Orthotopic +SA WAZ-2T mammary carcinoma model; assay type: in vivo, Balb/c mice
Protocol: This Example describes Norleaul effects in a mouse model of breast cancer in which animals were orthotopically injected with +SA WAZ-2T mouse mammary carcinoma cells (5×10^5) into the mammary fat pad of 11-week old female Balb/c mice. The +SA cell line was chosen due to its aggressive nature and ability to form highly vascularized tumors with 100% incidence per injection (Danielson et al., 1986). NORLEUAL (SEQ ID NO:43) was delivered via Elvax slow release pellets at doses of 0.3 mg/pellet, 0.03 mg/pellet, and 0.003 mg/pellet, implanted into the mammary glands immediately prior to tumor cell injection. These pellets provided an estimated continuous release of NORLEUAL at doses equivalent to 37.5 μg/kg/day, 3.75 μg/kg/day, and 0.375 μg/kg/day, respectively (based on in vitro release assays of pellets, data not shown). […] Tumor growth was monitored every 2-3 days, based on caliper measurements of the two longest diameters and calculating tumor volume.

[2] = Chronic treatment: body weight, DXA body composition and pathology; assay type: in vivo, C57BL/6 mice
Protocol: Twenty-four five-week old C57BL/6 male mice were equally and randomly assigned to two groups. One group was assigned as control and the other treated. Treated mice were administered intermuscular (IM) injections of Norleual at 21 μg/kg/day, (40 μl injectable volume) every 48 hours for the duration of one hundred and one days. Injection sites were alternated between left and right gluteus medius. BD Ultra-Fine 3/10 cc insulin syringes were used as delivery apparatus. Mice were housed two per cage and had unlimited access to food and water. Mice were monitored daily for signs of morbidity. Mice were also weighed on a weekly basis. C57/BL6 mice were treated either with vehicle control or with Norleual chronically for 101 days.
To assess body composition of the mice, the Comparative Orthopedic Research Laboratory at the Washington State University Veterinary School was utilized. A Hologic QDR4500A fan beam dual-energy X-ray absorptiometer (DXA, Hologic Inc., Bedford, Mass.) was used to assess the lean body mass (muscle), fat, and bone composition of each mouse on day one hundred one of the experiment. Mice were sacrificed and DXA scans were performed. Due to the volume limitations of the DXA instrument and to permit time for gross pathology, half of the mice were sacrificed and analyzed on day 101. The remaining mice were sacrificed and analyzed 22 hours later. Control and treated mice were split evenly among the two sacrifice episodes. Data were collected and the control group was compared to the Norleual treated group by two-tailed student's t-tests using InStat software (GraphPad, San Diego, Calif.). Figures were created using GraphPad Prism software.
Gross pathology and microscopic pathological evaluation on autopsy tissue were performed in blinded fashion on animals following sacrifice, with attention to multiple organs.

[3] = system: urokinase plasminogen activator (uPA); assay: c-Met/HGF urokinase plasminogen activator (uPA) induction in MDCK cells; assay type: cell-based, canine; conditions: HGF 10 ng/ml, Norleual 10^−10 M and 10^−12 M, 48 hours
Protocol: Thereafter, 10 ng/ml of HGF alone and with the indicated concentrations of Norleual in a 1% FBS DMEM were added to the cells. The cells were cultured under these conditions for four days. On the fourth day, the treatment media was aspirated and replaced with 5 mg/ml of MTT reagent in 0.1 M glycine buffer (Invitrogen). The MTT reagent was incubated with the cells for four hours at 37° C. before adding DMSO to solubilize the cells and record the MTT absorbance on a plate reader. The controls were treated as background and subtracted from all of the treatments to determine the increase in proliferation due solely to HGF treatment. Differences between the treatments were determined using one-way ANOVA with Bonferroni's post-hoc analysis (Prism statistical analysis software). * indicate p<0.05 vs. HGF treatment. N=6, mean+/−SEM. […] Madin-Darby Canine Kidney (MDCK) cells were plated in the wells of a 96 well plate in 100 μl of complete Dulbecco's Modified Eagle's Medium (DMEM). The cells were serum starved for 24 hours to induce quiescence. […] Absorbance of the cleaved substrate was quantitated on a Biotek Synergy HT 2 plate reader according to the manufacturer's instructions. […] The data was analyzed with Prism® (GraphPad, San Diego, Calif.) statistical analysis software. * indicates p<0.01 vs. HGF treatment by Tukey's post-hoc analysis. […]

[4] = system: HEK293 cell membranes (c-Met system); assay: 125I-Norleual binding assay, HEK293 cell membranes; set-up: species or system human; conditions: 1.5 nM HGF or 1 μM Norleual
Protocol: FIG. 3C: ^125I-Norleual was bound to HEK membranes in the presence or absence of 1.5 nM HGF (n=8) or 1 μM Norleual (n=6). Total binding is reported as percent control (n=10), (*p<0.001). Error bars indicate±SD. […] Error bars indicate SD and data points were performed in duplicate.
^125I-Norleual binding assay. HEK293 cells were grown to confluency in DMEM fortified with 10% FBS. Media was aspirated and cells were washed twice with ice-cold PBS. Cells were lysed with hypotonic buffer and homogenized as described by Zhang et al. (1999, J. Pharmacol. Exp. Ther. 289: 1075-1083; 2003 J. Cell Biochem. 88: 408-417). 450 μg of membrane protein was incubated with 1.5 nM ^125I-Norleual with or without Norleual or HGF in a total volume of 250 μl PBS, 0.1% BSA. Tubes were spun and binding was carried out for 60 minutes at RT. Bound and free ligands were separated by vacuum filtration using (Brandel Cell Harvester, Schleicher & Schull, Keene, N.H., USA) 32 glass filters. Radioactivity retained by the filters was measured using a gamma counter. […] Data analysis was preformed using Prism software (GraphicPad) per the supplier's recommendations.
Materials and methods were as described in Example 1. In separate tests of unlabeled competitors, both Norleual and HGF competed with ^125I-HGF for high affinity binding to mouse liver plasma membranes (FIGS. 2A, 2B). […]

In the case of “Nle-Tyr-Leu-ψ-His-Pro-Phe ([Nle]YLHPF; also: reduced peptide bond psi(CH2NH2) between Leu and His) [Norleual]”, the Tumor volume ([1]; 0.003 mg/pellet, n=6) was 112.7±61 mm^3, the “Tumor mean vessel count/high power field (Factor VIII staining)” value ([1]; 0.3 mg/pellet, n=5, control 27.8±3) was 3.0±0.9 and the “Delay in onset of palpable tumor mass” value ([1]; 0.3 mg/pellet, n=6, control 7 day lag) was “up to 21 days”. The “Inhibition of tumor volume compared to control” value ([1]; most effective dose, 0.3 mg/pellet) was 97%, the “Visible vascularization of tumors removed at conclusion” value ([1]; treated tumors) was “total lack of visible vascularization” and the “Visual inspection of animals versus control” value ([2]; 101 days treatment) was “visibly less bulky”. The “Scale measured weights versus control mice” value ([2]; IM 21 μg/kg/day every 48 hours, day 101, p=0.0130) was “significantly lower”, the “Distribution of lipid vacuoles in the liver relative to control animals” value ([2]; autopsy tissue, blinded pathology) was “marked reduction” and the “DXA measured bone mineral density versus control mice” value ([2]; day 101) was “not statistically significant”. For the same substance, the “Percent fat versus control mice (DXA)” value ([2]; day 101, p<0.0001) was “significantly lower”, the “DXA measured mass versus control mice” value ([2]; day 101, p=0.0146) was “significantly lower” and the “DXA measured area versus control mice” value ([2]; day 101, p=0.023) was “significantly lower”. The “Lean body mass+bone mineral content (BMC) versus control mice (DXA)” value ([2]; day 101, p=0.18) was “not significantly different”, the “c-Met/HGF uPA induction” value [3] was “attenuation” and the “Competition for 125I-Norleual specific binding to HEK293 cell membranes” value [4] was “competed”.
